Measurements taken from patent US20260345619A1 (Principia Biopharma Inc., priority 2023, published 2026).

Assay: Pre-bronchodilator FEV1 and percent predicted FEV1 by spirometry, change from baseline
Assay type: in vivo, human
Experimental: Spirometry is a standard test to measure patients' lung function.
The primary endpoint was the proportion of patients with LOAC. The key secondary endpoint for the study was change in pre-bronchodilator FEV1 from baseline at EOT.
Reversibility is defined as an increase of the absolute FEV1 after administration of bronchodilator and is measured by spirometry as postbronchodilator increase in FEV1 in percent of the prebronchodilator FEV1. After spirometry for measuring prebronchodilator FEV1, participants were to receive 2-4 puffs of albuterol/salbutamol or levalbuterol/levosalbutamol from a primed MDI. The postbronchodilator spirometry may have been repeated several times within 30 minutes after administration of bronchodilator. Alternatively, and only if it was consistent with usual office practice (to be documented), reversibility may have been performed using inhalation of nebulized albuterol/salbutamol or levalbuterol/levosalbutamol.
Secondary endpoints included pre-bronchodilator FEV1 change from baseline at EOT, ACQ-5 score change from baseline, and AQLQ score change from baseline. Other secondary and exploratory endpoints are described in Table 2.

[1] = 400 mg BID, Week 12, before LOAC and OCS use, as observed, mITT
[2] = 400 mg BID, Week 12, observed/LOCF imputed, mITT
[3] = 400 mg BID, Week 12, on-site conventional spirometry as observed, mITT
[4] = 400 mg BID, Week 12, reduced model, mITT
[5] = 400 mg BID, Week 16, before LOAC and OCS use, as observed, mITT
[6] = 400 mg BID, Week 16, on-site conventional spirometry as observed, mITT
[7] = 400 mg TID, Week 12, 1 exacerbation within 2 years
[8] = 400 mg TID, Week 12, 2 exacerbations within 2 years
[9] = 400 mg TID, Week 12, Eastern Europe
[10] = 400 mg TID, Week 12, Latin America
[11] = 400 mg TID, Week 12, age <45 years
[12] = 400 mg TID, Week 12, age ≥45 years
[13] = 400 mg TID, Week 12, asthma onset age <12 years
[14] = 400 mg TID, Week 12, asthma onset age <18 years

CC(C)(C=C(C#N)C(=O)N1CCC[C@@H](n2nc(-c3ccc(Oc4ccccc4)cc3F)c3c(N)ncnc32)C1)N1CCN(C2COC2)CC1 (mixture of isomers) [rilzabrutinib, (R)-2-[3-[4-amino-3-(2-fluoro-4-phenoxy-phenyl)pyrazolo[3,4-d]pyrimidin-1-yl]piperidine-1-carbonyl]-4-methyl-4-[4-(oxetan-3-yl)piperazin-1-yl]pent-2-enenitrile]
Pre-bronchodilator FEV1 change from baseline, median [1]: -0.04 L
Pre-bronchodilator FEV1 percent change from baseline, mean [1]: −2.63%
Pre-bronchodilator FEV1 percent change from baseline, median [1]: −2.04%
Change from baseline in pre-bronchodilator FEV1, Mean [2]: -0.04 L
Change from baseline in pre-bronchodilator FEV1, Median [2]: -0.02 L
Pre-bronchodilator FEV1, Mean [2]: 2.02 L
Pre-bronchodilator FEV1, Median [2]: 1.88 L
Pre-bronchodilator FEV1, mean [2]: 2.02 L
Pre-bronchodilator FEV1, median [2]: 1.88 L
Pre-bronchodilator FEV1 change from baseline, LS Mean [2]: -0.07 L
Pre-bronchodilator FEV1 change from baseline, LS Mean Diff vs. placebo [2]: 0.01 L
Pre-bronchodilator FEV1 change from baseline, Mean [2]: -0.04 L
Pre-bronchodilator FEV1 change from baseline, median [2]: -0.02 L
Pre-bronchodilator FEV1, mean [3]: 1.97 L
Pre-bronchodilator FEV1, median [3]: 1.82 L
Pre-bronchodilator FEV1 change from baseline, Mean [3]: -0.03 L
Pre-bronchodilator FEV1 change from baseline, median [3]: -0.05 L
Pre-bronchodilator FEV1 percent change from baseline, mean [3]: −3.27%
Pre-bronchodilator FEV1 percent change from baseline, median [3]: −2.70%
Change from baseline in pre-bronchodilator FEV1, LS Mean [4]: -0.07 L
Change from baseline in pre-bronchodilator FEV1, LS Mean diff vs. placebo [4]: 0.01 L
Pre-bronchodilator FEV1, mean [5]: 2.30 L
Pre-bronchodilator FEV1, median [5]: 2.01 L
Pre-bronchodilator FEV1 change from baseline, Mean [5]: 0.29 L
Pre-bronchodilator FEV1 change from baseline, median [5]: 0.28 L
Pre-bronchodilator FEV1 percent change from baseline, mean [5]: 13.96%
Pre-bronchodilator FEV1 percent change from baseline, median [5]: 15.23%
Pre-bronchodilator FEV1, mean [6]: 2.30 L
Pre-bronchodilator FEV1, median [6]: 2.01 L
Pre-bronchodilator FEV1 change from baseline, Mean [6]: 0.29 L
Pre-bronchodilator FEV1 change from baseline, median [6]: 0.28 L
Pre-bronchodilator FEV1 percent change from baseline, mean [6]: 13.96%
Pre-bronchodilator FEV1 percent change from baseline, median [6]: 15.23%
Pre-bronchodilator FEV1 change from baseline, LS Mean [7]: -0.14 L
Pre-bronchodilator FEV1 change from baseline, LS Mean Diff vs. placebo [7]: -0.13 L
Pre-bronchodilator FEV1 change from baseline, Mean [7]: -0.16 L
Pre-bronchodilator FEV1 change from baseline, LS Mean [8]: -0.08 L
Pre-bronchodilator FEV1 change from baseline, LS Mean Diff vs. placebo [8]: 0.06 L
Pre-bronchodilator FEV1 change from baseline, Mean [8]: -0.16 L
Pre-bronchodilator FEV1 change from baseline, Mean (400 mg TID, Week 12, >2 exacerbations within 2 years): 0.01 L
Pre-bronchodilator FEV1 change from baseline, LS Mean [9]: -0.18 L
Pre-bronchodilator FEV1 change from baseline, LS Mean Diff vs. placebo [9]: -0.08 L
Pre-bronchodilator FEV1 change from baseline, Mean [9]: -0.18 L
Pre-bronchodilator FEV1 change from baseline, LS Mean [10]: -0.08 L
Pre-bronchodilator FEV1 change from baseline, LS Mean Diff vs. placebo [10]: -0.12 L
Pre-bronchodilator FEV1 change from baseline, Mean [10]: -0.08 L
Pre-bronchodilator FEV1 change from baseline, Mean (400 mg TID, Week 12, Western Countries): -0.18 L
Pre-bronchodilator FEV1 change from baseline, LS Mean [11]: -0.24 L
Pre-bronchodilator FEV1 change from baseline, LS Mean Diff vs. placebo [11]: -0.18 L
Pre-bronchodilator FEV1 change from baseline, Mean [11]: -0.24 L
Pre-bronchodilator FEV1 change from baseline, LS Mean [12]: -0.04 L
Pre-bronchodilator FEV1 change from baseline, LS Mean Diff vs. placebo [12]: -0.01 L
Pre-bronchodilator FEV1 change from baseline, Mean [12]: -0.08 L
Pre-bronchodilator FEV1 change from baseline, LS Mean [13]: -0.34 L
Pre-bronchodilator FEV1 change from baseline, LS Mean Diff vs. placebo [13]: -0.28 L
Pre-bronchodilator FEV1 change from baseline, Mean [13]: -0.25 L
Pre-bronchodilator FEV1 change from baseline, LS Mean [14]: -0.25 L
Pre-bronchodilator FEV1 change from baseline, LS Mean Diff vs. placebo [14]: -0.27 L
Pre-bronchodilator FEV1 change from baseline, Mean [14]: -0.18 L
Pre-bronchodilator FEV1 change from baseline, LS Mean (400 mg TID, Week 12, asthma onset age ≥12-<18 years): 0.05 L
